From patent publication US20140163082A1, “PYRAZOLYL COMPOUNDS FOR USE IN REVERSING REACTIVE GLIOSIS” (priority 2011, published 2014)

Legend:
[1] = test system: preretinal NV in OIR mouse model; test: Quantification of preretinal NV (H&E sections), OIR mouse model; assay type: in vivo, C57BL/6J mice; settings: OIR mice, double intravitreal injection YC-1 100 μM, P17, n=8; DMSO 61
Procedure: Retinal NV was induced in newborn mice as described previously. Briefly, P7 mice were exposed with their nursing mother, for 5 days [between P7 and P12] to hyperoxic conditions, by incubating them in an airtight chamber [PROOX 110 chamber O2 controller; Biospherix Ltd., Redfield, N.Y.] ventilated by a mixture of O2 and air to a final oxygen fraction of 75±2%. These incubation conditions induced vaso-obliteration and subsequent cessation of vascular development in the capillary beds of the central retina. At P12, the mice were allowed to recover in normal room air conditions and maintained for another 5 days [till P17], the day in which peak disease occurs. A condition of relative hypoxia resulted between P12 and P17, and extensive retinal NV developed in 100% of the mice. […]
Quantification of preretinal NV on P17 mice was performed as previously described. Briefly, 6-μm-thick serial sections were stained with hematoxylin and Eosin (H&E), then examined and scored in masked fashion for the presence of all nuclei extending beyond the ILM into the vitreous from the retina, by using light microscopy (Zeiss Axiovert 135, Thornwood, N.Y.). Efficacy of treatment was calculated as the percentage of the average number of nuclei/section in the eyes of YC-1-treated mice vs. DMSO-treated retinas. A minimum of 10 sections at least 40 μm apart were evaluated and counted per eye and then averaged. […]

ischemic retinas = test: Immunohistochemical analysis, in vivo (OIR retinas); parameters: species or system C57BL/6J mice; settings: OIR mice, vs DMSO-treated retinas
Procedure: Retinal NV was induced in newborn mice as described previously. Briefly, P7 mice were exposed with their nursing mother, for 5 days [between P7 and P12] to hyperoxic conditions, by incubating them in an airtight chamber [PROOX 110 chamber O2 controller; Biospherix Ltd., Redfield, N.Y.] ventilated by a mixture of O2 and air to a final oxygen fraction of 75±2%. These incubation conditions induced vaso-obliteration and subsequent cessation of vascular development in the capillary beds of the central retina. At P12, the mice were allowed to recover in normal room air conditions and maintained for another 5 days [till P17], the day in which peak disease occurs. A condition of relative hypoxia resulted between P12 and P17, and extensive retinal NV developed in 100% of the mice. Age-matched animals with the hyperoxia-exposed groups were maintained identically, except they were exposed to room air […], 79% N2] for the entire duration of the experiment. All animals were examined and sacrificed on the same days.
A group of hyperoxia-exposed animals [n=15] were injected intravitreally [into both eyes] at P12 and P15 with 3 μl of YC-1 [100 μM] [drug-treated group]. Another group of hyperoxiaexposed mice [n=15] were injected intravitreally [into both eyes] at P12 and P15 with 3 μl of DMSO [0.2% [v/v]] [mock-treated group]. Non-treated mice grown under ambient conditions, non-treated hyperoxia-exposed mice, DMSO-treated hyperoxia-exposed mice and YC-1-treated hyperoxia-exposed mice, were all examined at different critical time points for qualitative assessment of the retinal vasculature by fluorescein angiography.
Mouse retinas were dissected and prepared for immunohistochemical analysis, fixed in 4% paraformaldehyde in 0.1 M PBS for 15 min at room temperature and embedded in paraffin, sectioned [5 μm]. Tissue sections were deparaffinized, hydrated, and later exposed to heat induced antigen retrieval using a microwave oven [three 5-minute cycles in citrate buffer, pH 6.0], endogenous peroxidase was abolished with methanol, and hydrogen peroxide and nonspecific background staining was blocked by incubating the tissue sections for 5 minutes in normal swine serum. Subsequently, all slides were washed three times in PBS, and incubated for 1 hour with primary anti-[HIF-1α, VEGF, PDGF-B, GFAP, iNOS, and β-actin] antibodies. The sections were washed with TBST and incubated with EnVision Polymer HRP secondary antibody [DAKO, Carpinteria, Calif.] for 30 minutes. All slides were stained with DAB solution and counterstained with hematoxylin. Slides were cover slipped [Permount; Fisher Scientific, Fairlawn, N.J.] and examined by light microscopy. Negative controls were performed by omitting the primary antibodies. Sections were photographed under a microscope [Zeiss Axiovert 135, Thornwood, N.Y.], and images were acquired a digital camera [AxioCam, N.Y.]. All retinas were examined at X60 objective. The staining intensity in our series ranged from a weak blush to moderate or strong. The amount of cells staining with the antibody was further categorized as focal [<10%], patchy [10%-50%], and diffuse [>50%]. For meaningful semiquantitative analysis, focal and/or weak staining was considered equivocal staining, and patchy or diffuse staining was either subcategorized as either moderate or strong staining. All Immunohistochemical analyses were measured by Metamorph digital image software [Molecular Devices, Sunnyvale, Calif.].

R28 cells = test: Real time RT-PCR analysis, in vitro, R28; assay type: cell-based, rat
Procedure: A transformed Müller cell line [rMC-1] were grown in cell cultures in DMEM supplemented with 15% FBS, as well as with a fungicide mixture and 0.5% gentamicin in a humidified atmosphere of 5% CO2/95% air. Medium was changed every 2-3 days, and cells were grown to confluence in a 150-mm dish. Cells were split into 60-mm dishes and were used in the experiments when confluent. […] cells are immortalized rat retinal neurosensory/neuoroglial progenitor cells, by transfection with Adenovirus 12S E1A into the neonatal retinal tissue. […] cells express genes characteristic of neurons, as well as functional neuronal properties. […] cells were cultured in DMEM/F12 medium in a 1:1 mixture, supplemented with 5% FBS, 1.5 mM L-glutamine, 7.5 mM sodium pyruvate, 0.1 mM nonessential amino acids, 1×MEM, 0.37% sodium bicarbonate and 10 μg/ml gentamicin. Cells were incubated at 37° C. in the presence of 5% CO2. Human retinal microvascular endothelial cells [[…]][40,000 cells/well] were seeded in a 96-well plate and allowed to adhere overnight and incubated at 37° C. in normoxia. Cells were then cultured in 150 μl of CS-C medium supplemented with 10% FBS and in the presence of 1-100 μM YC-1 or DMSO [0.2%]. Cells were placed in airtight chambers [BioSpherix, Redfield, N.Y.] and the O2 tension was maintained at 1.2% by using Pro-Ox Model 110 O2 regulator [BioSpherix, Redfield, N.Y.]. The chamber was purged with a gas mixture of 5.32% CO2, and 93.48% N2. […] We used the primers summarized in [FIG. 6C] for RT-PCR. Gene-specific molecular beacons and primers were designed to encompass the genes of interest, with beacon's annealing site to overlap with the exon-exon junctions for additional specificity [Beacon Designer 6.0, Premier Biosoft International, Palo Alto, Calif., USA]. Threshold cycle [Ct] values for the different samples were utilized for the calculation of gene expression fold change using the formula 2 to the minus power of delta delta ct. Fold changes in the HIF-1, VEGF, PDGF-B, GFAP and iNOS gene relative to the β-actin endogenous control gene were determined by the following equation: fold change=2-Δ[ΔC T], where change in threshold cycle [ΔCT]=CT [gene of interest]-CT [β-actin] and Δ [ΔCT]=ΔCT [treated]-ΔCT [untreated].

[2] = R28, hypoxia 48 hours, YC-1 25-100 μM, vs DMSO-treated hypoxic cells

For `OCc1ccc(-c2nn(Cc3ccccc3)c3ccccc23)o1` [YC-1, 3-(5′-hydroxymethyl-2′-furyl)-1-benzylindazole], which “average number of neovascular nuclei (pre-retinal, anterior to ILM)” value [1] is on record?
Its value is 11±1.8.

What about the “GFAP immunoexpression in retina” value (ischemic retinas) of the same compound?
Its value is “significant down-regulation”.

And the “HIF-1 immunoexpression in retina” value (ischemic retinas)?
The value was “significant inhibition”.

And the “PDGF-B immunoreactivity in retina” value (ischemic retinas)?
Its value is “significantly inhibited”.

And the “VEGF immunoexpression in retina” value (ischemic retinas)?
The value was “significant inhibition”.

What about the “iNOS immunoreactivities in retina” value (ischemic retinas) of the same compound?
Its value is “significantly down-regulated”.

What about the “PDGF-B mRNA level” value (R28 cells; [2]) of the same compound?
The value was “significant dose-dependent attenuations”.

And the “VEGF mRNA level” value (R28 cells; [2])?
Its value is “significant dose-dependent attenuations”.

And the “iNOS mRNA level” value (R28 cells; [2])?
The value was “significant dose-dependent attenuations”.

And the “GFAP mRNA level” value (R28 cells; R28, hypoxia, YC-1 25-100 μM, vs DMSO-treated hypoxic cells, normalized to β-actin)?
Its value is “significant dose-dependent attenuations”.

And the HIF-1α message level (R28 cells; R28, pre- vs post-YC-1 treatment)?
The HIF-1α message level was “no differences”.
